Measured values reported in ChEMBL document CHEMBL5465560, “Selectivity Literature for EUbOPEN Chemogenomic Library” (2024).

Experiments:
[1] = molecular target: T1, Serine/threonine-protein kinase 17A (Homo sapiens) (UniProt Q9UEE5); test: Selectivity interaction (KinomeScan (DiscoverX)) EUB0000666a STK17A; conditions: at 10 µM
T1 sequence (whole entry): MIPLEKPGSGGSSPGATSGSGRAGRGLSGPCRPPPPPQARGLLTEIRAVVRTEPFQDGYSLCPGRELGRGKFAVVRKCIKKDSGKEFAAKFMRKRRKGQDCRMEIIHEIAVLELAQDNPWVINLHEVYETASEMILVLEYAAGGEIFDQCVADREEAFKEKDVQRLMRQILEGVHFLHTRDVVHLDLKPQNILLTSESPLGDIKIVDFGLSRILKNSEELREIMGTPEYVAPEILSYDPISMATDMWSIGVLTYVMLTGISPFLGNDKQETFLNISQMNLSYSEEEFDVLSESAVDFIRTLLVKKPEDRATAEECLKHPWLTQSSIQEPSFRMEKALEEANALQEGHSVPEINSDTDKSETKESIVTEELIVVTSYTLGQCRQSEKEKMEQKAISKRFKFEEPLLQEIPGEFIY

[2] = molecular target: T2, N-lysine methyltransferase KMT5A (Homo sapiens) (UniProt Q9NQR1); conditions: at 1 µM
T2 sequence (whole entry): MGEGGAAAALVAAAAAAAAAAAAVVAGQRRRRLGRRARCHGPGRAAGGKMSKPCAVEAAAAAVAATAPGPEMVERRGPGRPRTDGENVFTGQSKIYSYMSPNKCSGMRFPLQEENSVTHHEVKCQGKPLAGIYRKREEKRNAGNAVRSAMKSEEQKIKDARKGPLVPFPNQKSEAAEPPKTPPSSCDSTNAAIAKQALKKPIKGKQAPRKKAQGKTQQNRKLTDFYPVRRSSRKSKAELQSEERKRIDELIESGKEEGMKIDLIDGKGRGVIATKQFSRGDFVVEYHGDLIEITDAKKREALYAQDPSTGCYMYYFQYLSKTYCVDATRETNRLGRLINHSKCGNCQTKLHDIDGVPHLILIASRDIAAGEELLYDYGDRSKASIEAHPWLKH

[3] = molecular target: Vasopressin V1a receptor (Homo sapiens) (UniProt P37288); test: Selectivity interaction (Eurofins CEREP Diversity Profile (receptors and ion channels)) EUB0000279b AVPR1A; conditions: at 10 µM
Sequence of Vasopressin V1a receptor (Homo sapiens) (P37288 whole entry, looked up): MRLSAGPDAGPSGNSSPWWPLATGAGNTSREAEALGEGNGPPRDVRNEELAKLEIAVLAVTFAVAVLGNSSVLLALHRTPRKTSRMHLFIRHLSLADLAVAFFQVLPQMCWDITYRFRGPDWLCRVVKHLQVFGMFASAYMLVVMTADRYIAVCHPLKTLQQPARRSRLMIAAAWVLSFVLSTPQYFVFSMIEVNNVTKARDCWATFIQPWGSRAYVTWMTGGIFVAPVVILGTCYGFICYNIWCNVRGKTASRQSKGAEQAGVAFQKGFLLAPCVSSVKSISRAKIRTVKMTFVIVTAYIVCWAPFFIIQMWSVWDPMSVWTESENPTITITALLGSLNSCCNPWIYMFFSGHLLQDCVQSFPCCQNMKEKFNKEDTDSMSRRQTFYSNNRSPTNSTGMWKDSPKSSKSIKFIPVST

[4] = molecular target: Mitogen-activated protein kinase kinase kinase 10 (Homo sapiens) (UniProt Q02779); test: Selectivity interaction (KinomeScan (DiscoverX)) EUB0001079a MAP3K10; conditions: at 1 µM
[5] = molecular target: T3, Protein arginine N-methyltransferase 7 (Homo sapiens) (UniProt Q9NVM4); test: Selectivity interaction (Transferase panel (protein, RNA, and DNA methyltransferases. and EP300 (acetyltransferase))) EUB0000270b PRMT7
T3 sequence (whole entry): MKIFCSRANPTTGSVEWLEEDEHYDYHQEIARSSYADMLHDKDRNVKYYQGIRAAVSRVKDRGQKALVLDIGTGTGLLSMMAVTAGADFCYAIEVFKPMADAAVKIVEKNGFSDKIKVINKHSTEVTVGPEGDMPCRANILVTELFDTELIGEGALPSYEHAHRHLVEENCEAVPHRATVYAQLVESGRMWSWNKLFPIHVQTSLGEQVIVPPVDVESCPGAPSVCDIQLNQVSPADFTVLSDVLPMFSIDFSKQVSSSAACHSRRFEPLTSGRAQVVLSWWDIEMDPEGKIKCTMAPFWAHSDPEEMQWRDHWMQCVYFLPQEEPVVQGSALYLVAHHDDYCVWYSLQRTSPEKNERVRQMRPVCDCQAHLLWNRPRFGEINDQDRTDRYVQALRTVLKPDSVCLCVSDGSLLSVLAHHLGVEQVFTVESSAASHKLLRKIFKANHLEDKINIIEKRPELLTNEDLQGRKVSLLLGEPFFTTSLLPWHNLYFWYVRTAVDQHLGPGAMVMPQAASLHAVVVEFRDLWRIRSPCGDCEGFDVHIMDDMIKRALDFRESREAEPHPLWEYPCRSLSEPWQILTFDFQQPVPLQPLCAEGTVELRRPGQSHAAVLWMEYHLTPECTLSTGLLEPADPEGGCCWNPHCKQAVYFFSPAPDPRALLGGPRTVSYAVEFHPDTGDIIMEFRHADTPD

[6] = molecular target: T4, Serine/threonine-protein kinase Nek9 (Homo sapiens) (UniProt Q8TD19); test: Selectivity interaction (ActivX KiNativ screen (ex vivo kinase selectivity in human PBMCs)) EUB0001619a NEK9; type: cell-based; conditions: PBMC, at 1 µM
T4 sequence (whole entry): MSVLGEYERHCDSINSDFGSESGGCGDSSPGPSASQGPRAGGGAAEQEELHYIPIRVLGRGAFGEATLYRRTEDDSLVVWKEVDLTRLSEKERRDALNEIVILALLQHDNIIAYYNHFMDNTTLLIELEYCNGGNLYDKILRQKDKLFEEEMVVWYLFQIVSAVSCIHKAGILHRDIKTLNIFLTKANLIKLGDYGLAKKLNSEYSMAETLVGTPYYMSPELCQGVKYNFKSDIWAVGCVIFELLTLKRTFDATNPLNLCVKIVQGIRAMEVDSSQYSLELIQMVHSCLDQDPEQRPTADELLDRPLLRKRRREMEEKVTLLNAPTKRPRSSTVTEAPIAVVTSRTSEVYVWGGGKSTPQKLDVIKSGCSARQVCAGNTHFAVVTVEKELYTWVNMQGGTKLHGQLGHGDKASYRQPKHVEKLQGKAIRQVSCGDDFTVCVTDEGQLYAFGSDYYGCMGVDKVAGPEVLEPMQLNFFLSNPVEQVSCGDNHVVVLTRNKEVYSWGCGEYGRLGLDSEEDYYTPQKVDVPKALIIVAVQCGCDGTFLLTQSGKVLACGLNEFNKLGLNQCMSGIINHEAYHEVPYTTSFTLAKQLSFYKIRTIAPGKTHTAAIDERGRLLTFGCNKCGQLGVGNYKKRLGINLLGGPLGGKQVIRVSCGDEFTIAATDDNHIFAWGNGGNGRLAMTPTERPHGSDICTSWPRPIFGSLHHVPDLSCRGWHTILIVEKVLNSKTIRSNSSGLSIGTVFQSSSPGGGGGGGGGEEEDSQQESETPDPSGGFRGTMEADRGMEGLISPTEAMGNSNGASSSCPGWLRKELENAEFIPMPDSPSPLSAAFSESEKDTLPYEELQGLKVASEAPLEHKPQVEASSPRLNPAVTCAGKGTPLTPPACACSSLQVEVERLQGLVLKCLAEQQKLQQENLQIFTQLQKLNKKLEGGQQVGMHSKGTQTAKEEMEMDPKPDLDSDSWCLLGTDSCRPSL

[7] = molecular target: Citron Rho-interacting kinase (Homo sapiens) (UniProt O14578); test: Selectivity interaction (KinomeScan (DiscoverX)) EUB0000655a CIT; conditions: at 10 µM
Sequence of Citron Rho-interacting kinase (Homo sapiens) (O14578 whole entry): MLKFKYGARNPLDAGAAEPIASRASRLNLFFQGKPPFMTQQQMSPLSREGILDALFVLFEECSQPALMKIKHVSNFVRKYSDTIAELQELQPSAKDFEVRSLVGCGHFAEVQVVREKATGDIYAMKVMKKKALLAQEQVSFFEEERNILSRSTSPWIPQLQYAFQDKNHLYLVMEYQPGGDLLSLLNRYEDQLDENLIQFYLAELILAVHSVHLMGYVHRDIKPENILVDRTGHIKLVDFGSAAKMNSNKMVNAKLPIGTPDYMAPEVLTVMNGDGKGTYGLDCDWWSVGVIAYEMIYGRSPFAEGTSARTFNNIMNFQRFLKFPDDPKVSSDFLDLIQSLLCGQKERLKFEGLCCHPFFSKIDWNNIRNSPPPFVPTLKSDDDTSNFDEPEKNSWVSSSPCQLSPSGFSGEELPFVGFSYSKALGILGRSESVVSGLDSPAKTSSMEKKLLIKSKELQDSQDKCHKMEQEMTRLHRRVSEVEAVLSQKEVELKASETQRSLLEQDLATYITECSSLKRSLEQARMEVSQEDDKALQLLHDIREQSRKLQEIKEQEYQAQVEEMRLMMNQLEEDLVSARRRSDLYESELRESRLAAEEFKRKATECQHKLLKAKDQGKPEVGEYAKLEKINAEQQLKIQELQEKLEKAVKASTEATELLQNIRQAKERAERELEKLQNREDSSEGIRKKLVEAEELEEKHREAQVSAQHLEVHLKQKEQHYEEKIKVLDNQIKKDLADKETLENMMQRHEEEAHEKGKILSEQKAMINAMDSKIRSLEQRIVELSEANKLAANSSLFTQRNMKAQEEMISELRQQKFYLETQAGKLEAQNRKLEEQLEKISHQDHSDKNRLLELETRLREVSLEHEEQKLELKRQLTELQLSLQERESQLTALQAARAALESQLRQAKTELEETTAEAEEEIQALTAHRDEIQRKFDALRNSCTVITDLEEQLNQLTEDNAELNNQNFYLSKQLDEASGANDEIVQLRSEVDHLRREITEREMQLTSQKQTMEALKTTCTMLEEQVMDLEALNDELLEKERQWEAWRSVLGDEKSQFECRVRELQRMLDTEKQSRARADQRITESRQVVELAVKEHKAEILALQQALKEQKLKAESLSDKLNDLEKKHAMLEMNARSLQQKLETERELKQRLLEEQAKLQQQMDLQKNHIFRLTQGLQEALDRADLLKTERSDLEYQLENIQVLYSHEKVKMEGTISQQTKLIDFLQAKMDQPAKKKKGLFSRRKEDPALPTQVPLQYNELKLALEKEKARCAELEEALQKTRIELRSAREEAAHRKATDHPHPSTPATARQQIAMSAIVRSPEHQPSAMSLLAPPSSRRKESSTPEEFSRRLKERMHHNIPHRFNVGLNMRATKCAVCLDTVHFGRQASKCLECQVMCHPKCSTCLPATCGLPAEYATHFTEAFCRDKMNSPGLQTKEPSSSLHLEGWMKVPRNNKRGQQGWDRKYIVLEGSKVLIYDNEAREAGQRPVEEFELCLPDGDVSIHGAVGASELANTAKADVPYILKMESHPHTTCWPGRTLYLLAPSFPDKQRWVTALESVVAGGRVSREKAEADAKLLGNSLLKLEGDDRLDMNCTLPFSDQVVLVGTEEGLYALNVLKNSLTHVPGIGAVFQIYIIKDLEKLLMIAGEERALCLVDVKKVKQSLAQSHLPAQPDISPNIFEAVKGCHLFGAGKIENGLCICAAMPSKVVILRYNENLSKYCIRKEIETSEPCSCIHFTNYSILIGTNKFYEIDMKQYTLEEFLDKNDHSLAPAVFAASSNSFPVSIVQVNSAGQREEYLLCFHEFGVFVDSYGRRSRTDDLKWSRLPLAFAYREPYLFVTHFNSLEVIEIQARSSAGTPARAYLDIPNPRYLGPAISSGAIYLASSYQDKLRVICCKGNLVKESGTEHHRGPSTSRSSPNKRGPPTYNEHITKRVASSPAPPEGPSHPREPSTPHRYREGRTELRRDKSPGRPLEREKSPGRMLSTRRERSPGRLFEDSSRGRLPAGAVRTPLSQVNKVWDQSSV

[8] = molecular target: Vascular endothelial growth factor receptor 2 (Homo sapiens, UniProt P35968); test: Selectivity interaction (CEREP Wide Ligand Profile screen (panel of receptors, ion channels, and transporters)) EUB0001542aTs KDR
Sequence of Vascular endothelial growth factor receptor 2 (P35968 whole entry): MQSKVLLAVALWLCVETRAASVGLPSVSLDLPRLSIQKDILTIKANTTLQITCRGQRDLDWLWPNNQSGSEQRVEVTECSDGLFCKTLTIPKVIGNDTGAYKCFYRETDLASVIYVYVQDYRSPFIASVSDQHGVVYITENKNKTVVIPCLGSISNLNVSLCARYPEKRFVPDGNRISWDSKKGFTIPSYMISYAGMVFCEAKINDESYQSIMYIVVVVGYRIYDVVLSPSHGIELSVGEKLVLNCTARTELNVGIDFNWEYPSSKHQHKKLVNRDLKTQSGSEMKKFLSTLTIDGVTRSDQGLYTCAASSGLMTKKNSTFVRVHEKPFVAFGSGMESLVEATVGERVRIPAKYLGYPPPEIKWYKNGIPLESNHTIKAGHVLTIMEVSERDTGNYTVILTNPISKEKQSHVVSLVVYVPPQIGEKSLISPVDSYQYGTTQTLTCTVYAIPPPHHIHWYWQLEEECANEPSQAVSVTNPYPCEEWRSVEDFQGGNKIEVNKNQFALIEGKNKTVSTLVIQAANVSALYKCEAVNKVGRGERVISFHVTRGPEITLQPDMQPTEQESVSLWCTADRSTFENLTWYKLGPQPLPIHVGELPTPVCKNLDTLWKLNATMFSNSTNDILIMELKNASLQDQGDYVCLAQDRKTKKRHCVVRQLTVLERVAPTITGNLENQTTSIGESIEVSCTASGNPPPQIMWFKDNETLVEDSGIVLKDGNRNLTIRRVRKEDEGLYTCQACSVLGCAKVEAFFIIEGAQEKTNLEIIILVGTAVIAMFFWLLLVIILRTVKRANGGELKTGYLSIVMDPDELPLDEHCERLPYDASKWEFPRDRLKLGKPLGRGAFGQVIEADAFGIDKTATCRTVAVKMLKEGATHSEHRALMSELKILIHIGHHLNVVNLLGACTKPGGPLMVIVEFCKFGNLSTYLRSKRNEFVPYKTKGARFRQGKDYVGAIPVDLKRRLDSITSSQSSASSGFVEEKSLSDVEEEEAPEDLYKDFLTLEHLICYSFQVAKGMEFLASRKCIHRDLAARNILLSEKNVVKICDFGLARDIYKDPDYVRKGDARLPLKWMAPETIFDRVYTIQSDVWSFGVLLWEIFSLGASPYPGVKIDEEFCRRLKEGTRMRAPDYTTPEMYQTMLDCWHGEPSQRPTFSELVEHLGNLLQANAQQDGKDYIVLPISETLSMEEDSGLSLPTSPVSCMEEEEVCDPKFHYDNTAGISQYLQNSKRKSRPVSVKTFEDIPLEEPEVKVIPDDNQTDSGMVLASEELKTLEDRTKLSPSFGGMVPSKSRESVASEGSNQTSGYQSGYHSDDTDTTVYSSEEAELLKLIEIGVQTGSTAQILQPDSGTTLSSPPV

[9] = molecular target: Leukocyte tyrosine kinase receptor (Homo sapiens, UniProt P29376); test: Selectivity interaction (ProQinase) EUB0000171b LTK
Sequence of Leukocyte tyrosine kinase receptor (P29376 whole entry): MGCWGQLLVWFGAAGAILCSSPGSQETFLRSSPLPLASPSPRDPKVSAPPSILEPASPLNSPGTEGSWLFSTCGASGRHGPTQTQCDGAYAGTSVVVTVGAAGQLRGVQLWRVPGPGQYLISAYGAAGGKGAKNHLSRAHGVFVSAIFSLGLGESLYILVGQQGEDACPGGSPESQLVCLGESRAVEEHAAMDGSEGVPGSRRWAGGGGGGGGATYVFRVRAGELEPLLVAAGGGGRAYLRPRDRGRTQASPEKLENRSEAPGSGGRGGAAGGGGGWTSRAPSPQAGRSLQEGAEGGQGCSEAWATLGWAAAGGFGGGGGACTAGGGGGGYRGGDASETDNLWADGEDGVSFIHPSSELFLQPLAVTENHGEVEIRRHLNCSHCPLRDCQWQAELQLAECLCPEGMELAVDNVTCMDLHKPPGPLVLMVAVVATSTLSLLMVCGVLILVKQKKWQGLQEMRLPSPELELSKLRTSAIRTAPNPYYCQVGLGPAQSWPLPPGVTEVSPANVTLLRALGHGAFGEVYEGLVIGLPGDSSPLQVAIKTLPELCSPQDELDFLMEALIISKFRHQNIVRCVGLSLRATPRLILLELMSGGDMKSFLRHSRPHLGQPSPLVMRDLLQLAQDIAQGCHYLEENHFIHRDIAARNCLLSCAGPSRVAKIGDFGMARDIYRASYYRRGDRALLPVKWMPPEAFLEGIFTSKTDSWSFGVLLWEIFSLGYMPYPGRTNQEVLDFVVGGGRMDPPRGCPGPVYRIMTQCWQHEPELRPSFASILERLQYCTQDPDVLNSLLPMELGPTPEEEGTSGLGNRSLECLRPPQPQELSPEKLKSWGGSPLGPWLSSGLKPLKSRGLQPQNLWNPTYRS

`O=C(NOC[C@H](O)CO)c1ccc(F)c(F)c1Nc1ccc(I)cc1F` was tested, and the % of control [1] was 100%.

Compound `CNCCN1CCC(c2cc(CN(C)C(=O)c3cccc(Oc4ccccc4)c3)ccn2)CC1` has a % activity [2] of over 90%.

Work on `CC(=O)c1cc(-c2ccccc2OCC2CC2)c2ncccn12` yielded a % of control [3] of 89%.

`Nc1cnc(N2CCc3cc(S(=O)(=O)Nc4c(F)cc(Cl)cc4F)cc(N4CCCC4=O)c32)nc1` [TP-020n] was tested, and the % of control [4] was 75%.

With `Cc1cc(CN)cc(C)c1-c1ncn(C)c1-c1cncn1C` the % activity ([5]; at 1 µM) was over 90% and the % activity ([5]; at 10 µM) was over 80%.

Work on `N#Cc1cccc(-c2c[nH]c3ncnc(N4CCOCC4)c23)c1` yielded a % of inhibition [6] of 1%.

Compound `CN(C)CCOc1ccc(-c2nc(-c3ccncc3)c(-c3ccc4c(c3)CC/C4=N\O)[nH]2)cc1` has a % of control [7] of 0.8%.

For `Cn1cc(Nc2nccc(N3CC4CCC(C3)N4C(=O)[C@@H]3CC3(F)F)n2)cn1`, the IC50 [8] was 1600 nM.

In the case of `C=CC(=O)Nc1cccc(C(=O)Nc2ccc(Nc3cc(-c4[nH]c(SC)nc4C)ccn3)cc2)c1`, the % of control ([9]; at 1 µM) is reported as 108% and the % of control ([9]; at 5 µM) is reported as 99%.
